Assay [1] concerns the target ATR/ATRIP kinase (Homo sapiens (Human), UniProt Q13535). Briefly: ATR enzyme assay (HTRF, phosphorylation of substrate protein P53). The format is biochemical. Conditions: substrate P53, TR-FRET. As to the method: In this experiment, the phosphorylation level of substrate protein P53 (Eurofins, 14-952) was detected by HTRF technology to measure the activity of ATR/ATRIP (Eurofins, 14-953) kinase. Reaction buffer (25 mM HEPES pH 8.0, 0.01% Brij-35, 1% Glycerol, 5 mM DTT, 1 mg/mL BSA), termination buffer (12.5 mM HEPES pH 8.0, 0.005% Brij-35, 0.5% Glycerol, 250 mM EDTA) and assay buffer (50 mM HEPES pH 7.0, 150 mM NaCl, 267 mM KF, 0.1% sodium cholate, 0.01% Tween 20) were prepared in advance. ATR/ATRIP was diluted with reaction buffer to a working solution of 2 ng/μL, and the substrate protein P53 was diluted with reaction buffer to a working solution of 80 nM, and 4 nM of ATP (Sigma, A2383) working solution (containing 40 mM MnCl2) was prepared with reaction buffer. The compound was 3-fold diluted with DMSO, then diluted with reaction buffer into a working solution, then added to a 384-well plate at 2.5 μL/well, and centrifuged at 1500 rpm for 40 s. Then 2.5 μL of ATR/ATRIP working solution, P53 working solution and ATP working solution were added into the 384-well plate, centrifuged at 1500 rpm for 40 s and reacted at room temperature for 30 minutes. After the reaction was completed, 5 μL of termination buffer was added to each well, and centrifuged at 1500 rpm for 40 s. Antibody working solution containing 0.083 μg/mL anti-phospho-p53 (Ser15)-K (CisBio, cat. 61P08KAE) and 5 μg/mL anti-GST-d2 (CisBio, cat. 61GSTDLA) was prepared with assay buffer and added to the 384-well plate at 5 μL/well, then centrifuged at 1500 rpm for 40 s and reacted overnight at room temperature. Microplate reader (Tecan, Infinite M1000 Pro) was used to detect TR-FRET, and the data were analyzed with Graphpad software, and the four-parameter equation was used to fit the curve and calculate the IC50 value of the inhibitor (Table 1).

In assay [2] the target is CYP3A4 (Homo sapiens (Human), UniProt P08684). The assay is described as follows: Cytochrome oxidase P450 inhibition study, CYP3A4. The conditions noted are these: human liver microsomes. The format is in vitro ADME. As to the method: LC-MS/MS methods were used to evaluate the inhibitory effects of compounds on CYP2C19, 2D6 and 3A4 subtypes. In this method, the test compound was mixed with a solution of human liver microsomes containing CYP model substrates, and incubated together under the addition of NADPH, then the inhibitory IC50 of the compound on CYP2C19, 2D6 and 3A4 was calculated by measuring the amount of metabolites of the model substrate in the reaction solution. The specific experimental method is as follows:
Compounds to be tested were prepared as stock solutions at 10 mM concentration with DMSO and then diluted to 4 mM with acetonitrile solution. At the same time, the corresponding reference inhibitor solutions for CYP subtypes were prepared, for example, the reference inhibitor was Ketoconazole, then these two compounds were prepared separately ([…] of inhibitor DMSO stock solution+[…] of acetonitrile), and the samples prepared under the above conditions were at 400× concentration. Then, the above solution was 3-fold diluted with DMSO/acetonitrile mixture (v/v: 40/60) to prepare the final test solution, and seven concentration points were set for each test compound, and the initial test final concentration was 10 μM. NADPH, CYP enzyme model substrate and human liver microsome solution were diluted to appropriate concentrations with pre-warmed potassium phosphate buffer (0.1 M, pH 7.4), respectively. The human liver microsome solution was purchased from BD Gentest (20 mg/mL, Corning, article number #452161).
[…] of human liver microsome solution (0.2 mg/mL) was added to each well containing the test compound in the 96-well plate, and then 2 mL of the final test sample of test compounds prepared by serial dilution as described above was added thereto; for each well corresponding to the reference inhibitors, […] of human liver microsome solution (0.2 mg/mL) and 1 mL of the final test sample were added. […] of the prepared corresponding model substrate was dispensed into a 96-well plate, and the microsome solution was mixed evenly, then 30 mL of the test compound/reference inhibitor-human liver microsome mixture was taken and transferred to the 96-well plate containing the substrate, and the mixture was mixed well and preheated at 37° C. for 5 minutes, then […] of 8 mM NADPH solution preheated at 37° C. was added thereto to start the reaction. A duplicate well control and a blank control without the addition of test substances were set at the same time. The 96-well plate containing a total volume of […] of reaction solution was incubated at 37° C. After the incubation, 120 μL of cold acetonitrile solution containing internal standard was added to each well to terminate the reaction, and then the 96-well plate was shaked on a microplate shaker for 5 minutes (600 rpm/min), and put into a centrifuge and centrifuged for 20 minutes at 6000 rpm, 4° C. Then 40 μL of supernatant from each well was transferred to another 96-well plate, and 80 μL of ultrapure water was added to each well, put into a shaker and mixed for 5 minutes (600 rpm/min), and centrifuged at 6000 rpm, 4° C., for 20 minutes. Then LC-MS/MS detection was performed. The inhibition rate was determined by comparing the amount of model substrate metabolites at each test concentration without test substance addition, in the GraphPad Prism 5.0 software, the logarithm of the test concentration was used as the abscissa and the inhibition rate was used as the ordinate to perform a linear regression (Sigmoidal (non-linear) dose-response model) analysis to obtain the IC50 value of the test compound.

Where [3] appears, read: substrate Midazolam, read-out: IC50 3A4 (Midazolam).
[4] abbreviates: substrate Testosterone, read-out: IC50 3A4 (Testosterone).

Structures can show the parent of a compound that is named as a salt. Where two headings read alike, the source gives them in different places. A value given as a limit tells only on which side of the number the result lay.

Consider two molecules from patent publication US20240025899A1, “TRIHETEROCYCLIC DERIVATIVE, AND PHARMACEUTICAL COMPOSITION AND APPLICATION THEREOF” (SHANGHAI DE NOVO PHARMATECH CO., LTD., priority 2020, published 2024).

Chain of CYP3A4 (P08684 whole entry): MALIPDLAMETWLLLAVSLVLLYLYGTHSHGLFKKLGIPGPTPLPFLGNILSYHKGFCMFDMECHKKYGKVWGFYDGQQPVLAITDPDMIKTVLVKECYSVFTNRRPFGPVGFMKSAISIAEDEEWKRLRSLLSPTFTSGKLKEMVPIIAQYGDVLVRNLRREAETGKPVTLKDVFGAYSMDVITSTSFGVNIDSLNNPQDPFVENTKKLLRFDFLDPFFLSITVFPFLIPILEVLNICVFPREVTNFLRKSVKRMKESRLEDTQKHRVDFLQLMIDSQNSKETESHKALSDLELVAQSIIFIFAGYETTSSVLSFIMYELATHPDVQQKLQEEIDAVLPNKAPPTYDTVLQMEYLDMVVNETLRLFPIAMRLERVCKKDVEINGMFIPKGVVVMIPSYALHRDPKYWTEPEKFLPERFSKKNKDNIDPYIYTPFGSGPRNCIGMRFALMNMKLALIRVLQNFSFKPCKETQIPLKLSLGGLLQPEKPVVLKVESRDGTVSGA
Chain of ATR/ATRIP kinase (Q13535 whole entry): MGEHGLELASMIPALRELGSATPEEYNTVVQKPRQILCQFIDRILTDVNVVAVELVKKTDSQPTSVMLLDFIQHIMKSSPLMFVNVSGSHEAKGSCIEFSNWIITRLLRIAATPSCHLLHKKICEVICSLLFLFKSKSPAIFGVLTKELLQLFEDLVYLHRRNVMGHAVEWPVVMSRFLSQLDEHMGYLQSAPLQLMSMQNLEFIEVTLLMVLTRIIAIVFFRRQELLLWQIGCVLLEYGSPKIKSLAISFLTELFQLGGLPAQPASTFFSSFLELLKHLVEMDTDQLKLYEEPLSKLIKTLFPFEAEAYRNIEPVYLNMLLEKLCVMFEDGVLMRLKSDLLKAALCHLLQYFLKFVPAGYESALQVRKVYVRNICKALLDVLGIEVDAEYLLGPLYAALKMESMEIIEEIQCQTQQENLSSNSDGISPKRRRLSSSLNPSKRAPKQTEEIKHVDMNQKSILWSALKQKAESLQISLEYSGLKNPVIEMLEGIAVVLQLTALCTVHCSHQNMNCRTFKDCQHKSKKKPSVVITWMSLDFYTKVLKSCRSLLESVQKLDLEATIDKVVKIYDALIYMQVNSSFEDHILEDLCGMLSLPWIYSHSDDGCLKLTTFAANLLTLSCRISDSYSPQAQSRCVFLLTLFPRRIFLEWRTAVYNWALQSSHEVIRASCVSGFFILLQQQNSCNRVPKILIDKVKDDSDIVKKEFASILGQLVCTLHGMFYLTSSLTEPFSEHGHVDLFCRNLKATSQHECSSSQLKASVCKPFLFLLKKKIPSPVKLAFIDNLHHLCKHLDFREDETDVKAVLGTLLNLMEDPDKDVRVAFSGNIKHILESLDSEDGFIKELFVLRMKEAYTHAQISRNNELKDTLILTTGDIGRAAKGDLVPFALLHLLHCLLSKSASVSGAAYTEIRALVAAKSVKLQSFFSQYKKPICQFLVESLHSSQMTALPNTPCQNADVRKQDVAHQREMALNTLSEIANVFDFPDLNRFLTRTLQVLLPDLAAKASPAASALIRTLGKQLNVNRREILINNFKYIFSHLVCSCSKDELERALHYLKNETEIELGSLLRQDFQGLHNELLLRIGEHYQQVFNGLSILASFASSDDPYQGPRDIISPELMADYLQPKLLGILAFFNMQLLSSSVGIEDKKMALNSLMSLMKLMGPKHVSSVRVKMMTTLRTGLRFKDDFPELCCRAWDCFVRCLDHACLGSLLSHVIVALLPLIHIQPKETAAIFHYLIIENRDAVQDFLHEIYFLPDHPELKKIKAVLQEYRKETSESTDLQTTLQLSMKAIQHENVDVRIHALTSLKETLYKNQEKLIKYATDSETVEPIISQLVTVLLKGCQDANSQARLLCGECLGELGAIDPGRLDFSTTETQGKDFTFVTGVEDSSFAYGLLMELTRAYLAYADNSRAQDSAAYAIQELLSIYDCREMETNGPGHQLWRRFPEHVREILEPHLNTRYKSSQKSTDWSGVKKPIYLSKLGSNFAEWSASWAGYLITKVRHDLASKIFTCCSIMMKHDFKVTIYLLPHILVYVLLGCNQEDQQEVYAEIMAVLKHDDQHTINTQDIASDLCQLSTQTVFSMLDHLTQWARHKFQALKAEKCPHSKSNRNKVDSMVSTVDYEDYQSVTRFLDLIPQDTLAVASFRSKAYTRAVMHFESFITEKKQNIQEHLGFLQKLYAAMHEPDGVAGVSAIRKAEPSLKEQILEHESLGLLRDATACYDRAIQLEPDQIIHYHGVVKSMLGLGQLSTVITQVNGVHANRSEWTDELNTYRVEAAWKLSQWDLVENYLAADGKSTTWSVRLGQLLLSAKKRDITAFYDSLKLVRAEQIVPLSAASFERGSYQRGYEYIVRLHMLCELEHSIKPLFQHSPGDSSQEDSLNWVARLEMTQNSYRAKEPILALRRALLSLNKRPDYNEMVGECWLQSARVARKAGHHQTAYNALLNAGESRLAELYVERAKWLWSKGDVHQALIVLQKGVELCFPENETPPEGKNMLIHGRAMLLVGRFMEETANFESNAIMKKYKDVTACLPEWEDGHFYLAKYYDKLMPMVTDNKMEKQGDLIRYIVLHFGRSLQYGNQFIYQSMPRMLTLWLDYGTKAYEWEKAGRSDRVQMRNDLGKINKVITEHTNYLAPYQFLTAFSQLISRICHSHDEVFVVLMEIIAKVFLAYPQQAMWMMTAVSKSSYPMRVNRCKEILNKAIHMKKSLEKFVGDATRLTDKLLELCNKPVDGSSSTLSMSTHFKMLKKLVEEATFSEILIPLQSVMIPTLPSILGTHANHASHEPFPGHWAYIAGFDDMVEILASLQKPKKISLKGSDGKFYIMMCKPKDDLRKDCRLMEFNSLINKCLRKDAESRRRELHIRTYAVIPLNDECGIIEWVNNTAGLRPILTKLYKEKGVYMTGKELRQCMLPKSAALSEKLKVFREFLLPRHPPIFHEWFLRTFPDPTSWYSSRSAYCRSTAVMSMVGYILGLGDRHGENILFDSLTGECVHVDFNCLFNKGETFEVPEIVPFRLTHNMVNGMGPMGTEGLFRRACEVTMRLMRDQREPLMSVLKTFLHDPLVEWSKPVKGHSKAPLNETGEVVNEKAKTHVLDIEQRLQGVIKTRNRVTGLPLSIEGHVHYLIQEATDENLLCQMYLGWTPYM
Chain of ATR/ATRIP kinase (Q8WXE1 whole entry partner): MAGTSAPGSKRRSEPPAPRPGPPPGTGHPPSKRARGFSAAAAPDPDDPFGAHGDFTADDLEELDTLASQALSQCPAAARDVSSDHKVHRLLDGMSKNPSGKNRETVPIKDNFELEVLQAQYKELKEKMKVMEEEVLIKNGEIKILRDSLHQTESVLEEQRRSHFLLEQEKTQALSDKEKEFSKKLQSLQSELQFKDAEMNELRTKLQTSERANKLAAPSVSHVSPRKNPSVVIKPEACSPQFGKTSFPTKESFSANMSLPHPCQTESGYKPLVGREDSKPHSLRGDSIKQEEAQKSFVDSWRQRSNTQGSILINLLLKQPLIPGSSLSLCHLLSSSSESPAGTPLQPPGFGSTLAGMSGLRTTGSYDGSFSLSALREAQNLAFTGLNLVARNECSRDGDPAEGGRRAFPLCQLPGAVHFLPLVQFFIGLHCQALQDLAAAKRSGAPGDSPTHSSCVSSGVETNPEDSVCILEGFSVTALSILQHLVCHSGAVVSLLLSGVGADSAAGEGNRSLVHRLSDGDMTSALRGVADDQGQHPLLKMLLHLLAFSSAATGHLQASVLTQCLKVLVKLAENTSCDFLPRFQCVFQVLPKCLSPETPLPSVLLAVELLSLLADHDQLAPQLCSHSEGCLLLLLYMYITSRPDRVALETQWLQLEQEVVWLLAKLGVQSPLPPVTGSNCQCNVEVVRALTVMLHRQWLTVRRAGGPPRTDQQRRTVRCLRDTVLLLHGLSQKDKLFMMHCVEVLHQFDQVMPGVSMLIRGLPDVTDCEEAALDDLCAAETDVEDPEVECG

In the case of `C[C@@H]1COCCN1c1nc2c(cnn2-c2cc[nH]n2)c2c1ccn2S(C)(=O)=O` [Compound 1, (R)-3-methyl-4-(1-(methylsulfonyl)-6-(1H-pyrazol-3-yl)-1,6-dihydropyrazolo[3,4-b]pyrrolo[2,3-d]pyridin-4-yl)morpholine trifluoroacetate], the IC50 is 0.0012 µM in assay [1], greater than 10 µM in assay [2] (setting [3]) and greater than 10 µM in assay [2] (setting [4]).
As for `C[C@@H]1COCCN1c1nc2c(cnn2-c2cc[nH]n2)c2c1CCN2S(C)(=O)=O` [Compound 2, (R)-3-methyl-4-(1-(methylsulfonyl)-6-(1H-pyrazol-3-yl)-1,2,3,6-tetrahydropyrazolo[3,4-b]pyrrolo[2,3-d]pyridin-4-yl)morpholine trifluoroacetate], the IC50 in assay [1] was 0.00069 µM; in assay [2] (setting [3]) it was greater than 10 µM; in assay [2] (setting [4]), greater than 10 µM.
